Measured values: PubChem BioAssay AID248 (DTP/NCI, 2004)
Where “and” joins values, the source holds several entries; their conditions need not be identical. Identical values can stand only once. Inconclusive results and toxic doses are left out. Rule as the data show it: active = T/C of 150% or more; inactive = T/C below 125%. Square brackets hold non-standard residues; d marks the D form. Peptide text beside a SMILES is read from it. * marks the point of attachment. Cbz = O=C(OCc1ccccc1)*; Sar = CNCC(=O)O

Test system: L1210 leukemia ip in BDF1 mice, survival T/C
Experiment: NCI In Vivo Anticancer Drug Screen. Data for tumor model L1210 Leukemia (intraperitoneal) in B6D2F1 (BDF1) mice
Conditions: endpoint: mean survival time, higher = longer survival
Outline: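 Read-out is survival time, reported as the treated-group measurement over the vehicle-control measurement.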

[1] = dose: 50.0 mg/kg/injection, schedule: Q01DX001 (ip), vehicle: saline
[2] = dose: 100.0 mg/kg/injection, schedule: Q01DX001 (ip), vehicle: saline
[3] = dose: 200.0 mg/kg/injection, schedule: Q01DX001 (ip), vehicle: saline
[4] = dose: 400.0 mg/kg/injection, schedule: Q01DX001 (ip), vehicle: saline
[5] = dose: 100.0 mg/kg/injection, schedule: Q04DX003 (ip), vehicle: saline with Tween-80
[6] = dose: 200.0 mg/kg/injection, schedule: Q04DX003 (ip), vehicle: saline with Tween-80
[7] = dose: 400.0 mg/kg/injection, schedule: Q04DX003 (ip), vehicle: saline with Tween-80
[8] = dose: 75.0 mg/kg/injection, schedule: Q01DX001 (ip), vehicle: other
[9] = dose: 150.0 mg/kg/injection, schedule: Q01DX001 (ip), vehicle: other
[10] = dose: 50.0 mg/kg/injection, schedule: Q01DX009 (ip), vehicle: Klucel (hydroxypropylcellulose) (HPC)
[11] = dose: 100.0 mg/kg/injection, schedule: Q01DX009 (ip), vehicle: Klucel (hydroxypropylcellulose) (HPC)
[12] = dose: 100.0 mg/kg/injection, schedule: Q04DX003 (ip), vehicle: Klucel (hydroxypropylcellulose) (HPC)
[13] = dose: 200.0 mg/kg/injection, schedule: Q01DX009 (ip), vehicle: Klucel (hydroxypropylcellulose) (HPC)
[14] = dose: 200.0 mg/kg/injection, schedule: Q04DX003 (ip), vehicle: Klucel (hydroxypropylcellulose) (HPC)
[15] = dose: 100.0 mg/kg/injection, schedule: Q04DX002 (ip), vehicle: saline
[16] = dose: 200.0 mg/kg/injection, schedule: Q04DX002 (ip), vehicle: saline
[17] = dose: 400.0 mg/kg/injection, schedule: Q04DX002 (ip), vehicle: saline
[18] = dose: 25.0 mg/kg/injection, schedule: Q04DX002 (ip), vehicle: saline with Tween-80
[19] = dose: 50.0 mg/kg/injection, schedule: Q04DX002 (ip), vehicle: saline with Tween-80
[20] = dose: 100.0 mg/kg/injection, schedule: Q04DX002 (ip), vehicle: saline with Tween-80
[21] = dose: 100.0 mg/kg/injection, schedule: Q01DX009 (ip), vehicle: saline with Tween-80
[22] = dose: 200.0 mg/kg/injection, schedule: Q01DX009 (ip), vehicle: saline with Tween-80
[23] = dose: 200.0 mg/kg/injection, schedule: Q04DX002 (ip), vehicle: saline with Tween-80
[24] = dose: 400.0 mg/kg/injection, schedule: Q04DX002 (ip), vehicle: saline with Tween-80

Measured: T/C

CN1COc2c(n(C)c(=O)[nH]c2=O)C1
inactive: [1] 97 % of control | [2] 103 % of control | [3] 89 % of control | [4] 101 % of control

CC(C)C(=O)Nc1cc(Cl)ccc1Cl
inactive: dose: 100.0 mg/kg/injection, schedule: Q01DX001 (ip), vehicle: other 94 % of control | dose: 200.0 mg/kg/injection, schedule: Q01DX001 (ip), vehicle: other 97 % of control | dose: 400.0 mg/kg/injection, schedule: Q01DX001 (ip), vehicle: other 92 % of control

CC1Cc2c(cccc2[N+](=O)[O-])C1=O (centres undefined)
inactive: [5] 101 % of control | [6] 96 % of control | [7] 107 % of control

O=C(N=P(c1ccccc1)(c1ccccc1)c1ccccc1)c1ccccc1
inactive: [2] 94 % of control | [3] 100 % of control | [4] 96 % of control

O=C1c2cccc([N+](=O)[O-])c2C(=O)N1CCl
inactive: dose: 100.0 mg/kg/injection, schedule: Q01DX001 (ip), vehicle: steriod suspending solution 97 % of control | dose: 200.0 mg/kg/injection, schedule: Q01DX001 (ip), vehicle: steriod suspending solution 105 % of control

O=C(C[n+]1ccccc1Br)c1cccc([N+](=O)[O-])c1
inactive: [8] 100 % of control | [9] 108 % of control

CN(CC(=O)O)C(=O)CNC(=O)OCc1ccccc1 (Cbz-Gly-[Sar]-OH)
inactive: [10] 105 % of control | dose: 50.0 mg/kg/injection, schedule: Q04DX003 (ip), vehicle: Klucel (hydroxypropylcellulose) (HPC) 97 % of control | [11] 94 % of control | [12] 97 % of control | [13] 91 % of control | [14] 98 % of control

COC(=O)NC1CC(CO)CC1O (centres undefined)
inactive: [10] 91 % of control | [11] 89 % of control | [13] 91 % of control

CCc1ccc(NC(=S)NC(=O)C(C)Oc2ccccc2)cc1 (centres undefined)
inactive: [15] 110 % of control | [16] 103 % of control | [17] 90 % of control

Cc1ccc(S(=O)(=O)Oc2ccccc2C)cc1
inactive: [12] 97 % of control | [14] 103 % of control | dose: 400.0 mg/kg/injection, schedule: Q04DX003 (ip), vehicle: Klucel (hydroxypropylcellulose) (HPC) 103 % of control

CC(C)NCCCN
inactive: [18] 98 % of control | [19] 98 % of control | [2] 103 % of control | [20] 101 % of control and 106 % of control | [3] 109 % of control

CCCCc1ccc(Sc2cccc3c2C(=O)c2c(Sc4ccc(CCCC)cc4)cccc2C3=O)cc1
inactive: [21] 97 % of control | [5] 93 % of control | [22] 102 % of control | [6] 97 % of control | dose: 400.0 mg/kg/injection, schedule: Q01DX009 (ip), vehicle: saline with Tween-80 92 % of control | [7] 97 % of control

CCC/C(=N/OC(=O)N(C)C)c1ccccc1
inactive: dose: 100.0 mg/kg/injection, schedule: Q01DX001 (ip), vehicle: carboxymethylcellulose (CMC) 97 % of control | dose: 200.0 mg/kg/injection, schedule: Q01DX001 (ip), vehicle: carboxymethylcellulose (CMC) 98 % of control | dose: 400.0 mg/kg/injection, schedule: Q01DX001 (ip), vehicle: carboxymethylcellulose (CMC) 101 % of control

NC(=O)c1c([N+](=O)[O-])ncn1C1OC(CO)C(O)C1O (centres undefined)
inactive: [2] 98 % of control | [3] 102 % of control | [4] 96 % of control

Cc1cccc(-c2nnc(-c3cccc(C)n3)o2)n1
inactive: [19] 92 % of control | [20] 95 % of control | [23] 92 % of control | [24] 87 % of control

CCOC1(O)C(=O)c2ccccc2OC1(OCC)c1ccccc1 (centres undefined)
inactive: [1] 93 % of control | [2] 96 % of control | [3] 96 % of control | [4] 98 % of control

COc1c(Cl)c(Cl)c(Cl)c(Cl)c1NC(C)=O
inactive: dose: 100.0 mg/kg/injection, schedule: Q01DX001 (ip), vehicle: acetone 102 % of control | dose: 200.0 mg/kg/injection, schedule: Q01DX001 (ip), vehicle: acetone 100 % of control | dose: 400.0 mg/kg/injection, schedule: Q01DX001 (ip), vehicle: acetone 94 % of control

[CH3][Sb]1([CH3])([I])[CH2]CC[CH2]1
inactive: dose: 100.0 mg/kg/injection, schedule: Q04DX003 (ip), vehicle: saline 101 % of control | dose: 200.0 mg/kg/injection, schedule: Q04DX003 (ip), vehicle: saline 97 % of control | dose: 400.0 mg/kg/injection, schedule: Q04DX003 (ip), vehicle: saline 101 % of control

CN(C)CC(=O)CC12CC3CC(CC(C3)C1)C2
inactive: [15] 94 % of control | [16] 100 % of control | [17] 89 % of control

CP(=O)(CCP(=O)(c1ccccc1)c1ccccc1)c1ccccc1 (centres undefined)
inactive: [18] 94 % of control | [19] 106 % of control | [20] 97 % of control

O=C(O)C(=O)C(Cl)Br (centres undefined)
inactive: dose: 12.5 mg/kg/injection, schedule: Q01DX001 (ip), vehicle: saline 111 % of control | dose: 25.0 mg/kg/injection, schedule: Q01DX001 (ip), vehicle: saline 118 % of control | [1] 111 % of control

CC/C=C/C1(C(C)C)C(=O)NC(=O)NC1=O (tested in a mixture with another compound)
inactive: dose: 75.0 mg/kg/injection, schedule: Q01DX001 (ip), vehicle: saline 100 % of control | dose: 150.0 mg/kg/injection, schedule: Q01DX001 (ip), vehicle: saline 94 % of control | dose: 300.0 mg/kg/injection, schedule: Q01DX001 (ip), vehicle: saline 94 % of control

O=C(CC(=O)C(F)(F)C(F)(F)C(F)(F)F)C(F)(F)F
inactive: dose: 12.5 mg/kg/injection, schedule: Q01DX009 (ip), vehicle: saline 107 % of control | dose: 12.5 mg/kg/injection, schedule: Q04DX003 (ip), vehicle: saline 102 % of control | dose: 25.0 mg/kg/injection, schedule: Q01DX009 (ip), vehicle: saline 88 % of control | dose: 25.0 mg/kg/injection, schedule: Q04DX003 (ip), vehicle: saline 87 % of control | dose: 50.0 mg/kg/injection, schedule: Q04DX003 (ip), vehicle: saline 93 % of control

O=C1C(=O)c2ccccc2C(O)=C1C(C1=C(O)c2ccccc2C(=O)C1=O)c1ccc(Cl)cc1Cl
inactive: [8] 91 % of control | [9] 91 % of control | dose: 300.0 mg/kg/injection, schedule: Q01DX001 (ip), vehicle: other 107 % of control

CC(C)COC(c1ccc2c(c1)OCO2)C(C)Br (centres undefined)
inactive: [20] 96 % of control | [23] 101 % of control | [24] 107 % of control

O=C(OC1CCCC1c1ccccc1)c1cccc([N+](=O)[O-])c1 (centres undefined)
inactive: dose: 50.0 mg/kg/injection, schedule: Q01DX009 (ip), vehicle: saline with Tween-80 90 % of control | [21] 90 % of control | [22] 87 % of control
